Results on 85 molecules are retold here after ChEMBL document CHEMBL1157539, “Thousands of chemical starting points for antimalarial lead identification” (Nature, 2010).

This experiment has as its system Plasmodium falciparum. Kind of experiment: GSK_TCMDC: Inhibition of Plasmodium falciparum 3D7 in whole erythrocytes, using parasite LDH activity as an index of growth. The class given is functional, organism-based. The conditions noted are these: Plasmodium falciparum, 3D7.
Turning to `CO/C(=C\C=C/c1cc2cc(Cl)c(Cl)cc2[nH]1)C(=O)NC1CC(C)(C)N(C)C(C)(C)C1`, the XC50 is 833 nM. In turn, `CN1CC=C(c2c[nH]c3ccc(-c4ccccc4)cc23)CC1` returned an XC50 of 775 nM. As to `Cc1nnc2sc(-c3cccc(NC(=O)c4ccc(N5CCCCC5)c([N+](=O)[O-])c4)c3)nn12`, the XC50 was 1300 nM.

Regarding `O=S(=O)(NCCN1CCCC1)c1ccc(-c2ccc(CNC3Cc4ccccc4C3)cc2)s1`, the XC50 amounted to 590 nM. As for `Cc1cc(N[C@@H](Cc2ccccc2)C(=O)NCc2cccc(F)c2)nc(NCCc2ccccc2)n1`, the XC50 came to 1020 nM. For the molecule `O=C(N[C@@H](CC1CCCCC1)C(=O)NCCN1CCOCC1)c1ccc(O)c(-c2ccc(Cl)c(Cl)c2)c1`, the XC50 is 181 nM. Regarding `Cc1cc(CN2CC[C@H](NC(=O)c3ccc(Cl)c(Cl)c3)C2)ccc1OCCN1CCNCC1`, the XC50 came to 944 nM.

As for `CN1CCN(CC(=O)Nc2ccc(-c3ccc(-c4nc5ccccc5[nH]4)cc3)cc2)CC1`, the XC50 stood at 696 nM. For the molecule `COc1cc2c(c(Cl)c1OC)CCN(C(=O)C(F)(F)F)CC2c1ccccc1` (stereo not given), the XC50 came to 441 nM. In turn, `c1ccc(C2CCC(N3CCC(N4CCCC4)CC3)CC2)cc1` (stereo not given) showed an XC50 of 671 nM. The molecule `[O-][s+]1nc(NCCCN(Cc2cccs2)c2ccccn2)c(NCc2ccccc2)n1` (stereo not given) gave an XC50 of 305 nM.

For the molecule `N#Cc1ccc2c(c1)CN(CCC1CCC(NC(=O)c3cc4ccccc4cc3N)CC1)CC2` (stereo not given), the XC50 came to 1040 nM. `Cc1cc(C(F)(F)F)cc(-n2ncc(-c3ccc(C(=O)NCCNCc4ccccc4)cc3)c2N)n1` displayed an XC50 of 1070 nM. Regarding `O=C(/C=C/c1ccc(Cl)c(Cl)c1)N1CCC(CCCN2CCC(c3c[nH]c4ccccc34)CC2)CC1`, the XC50 was 707 nM.

With `Cc1cccc2nc(-c3cccc(-c4ccc(C(=O)NCCc5ccc(O)c(=O)[nH]5)cc4)c3)[nH]c12`, the XC50 is 1190 nM.

`CN1CCC(N2CCN(Cc3cccc(-c4ccc(-c5nc6cc(F)ccc6[nH]5)cc4)c3)CC2)CC1` displayed an XC50 of 107 nM. In the case of `O=C(Nc1ccc(OC2CCN(Cc3ccccc3)C2)c(Cl)c1)c1ccco1` (stereo not given) it was 406 nM; in that of `CC(=O)c1ccc(NC(=O)CSc2nc(-c3ccccc3Cl)ns2)cc1`, 1130 nM. For `N=C(N)NN=CC(=O)Nc1ccc(Cl)c(C(F)(F)F)c1` the value was 892 nM. Molecule `Cc1cccc2nc(-c3ccc(-c4ccc(NC(=O)Nc5ccc(F)c(F)c5F)cc4)cc3)[nH]c12` gave an XC50 of 273 nM. The molecule `COc1cccc(NC(=O)Nc2ccc(Nc3nc(C)cc(N4CCCC4)n3)cc2)c1` returned an XC50 of 198 nM. As to `O=S(=O)(NCCCN1CCOCC1)c1ccc2nccc(Nc3ccc(Oc4ccccc4)cc3)c2c1`, the XC50 was 855 nM.

In turn, `COC(=O)c1ccccc1N1CCN(CCCCNC(=O)c2ccc(NC(=O)c3cc(Cl)cc(Cl)c3)cc2)CC1` displayed an XC50 of 558 nM. With `COc1cc(Nc2nc(N)c3cc(OC)c(OC)cc3n2)cc(OC)c1`, the XC50 is 272 nM. As to `CCc1c[nH]c2c(N3CCCC3=O)cc(C(=O)N[C@@H](Cc3ccccc3)[C@H](O)CNC(C)(C)c3cccc(OC)c3)cc12`, the XC50 was 192 nM. With `COc1cc(CNC[C@@H](O)[C@H](Cc2ccccc2)NC(=O)c2cc(OC(C)C)cc(N3CCCS3(=O)=O)c2)cc(OC)c1`, the XC50 was found to be 798 nM. As to `CS(=O)(=O)CCNCc1cccc(-c2cc3c(Nc4ccc(OCc5ccccc5)cc4)ncnc3cn2)c1`, the XC50 turned out to be 734 nM. In turn, `Nc1ccnc(N2CCC(CCOc3ccnc4cc(Cl)ccc34)CC2)c1` returned an XC50 of 1160 nM. In the case of `COc1ccccc1CCNc1nc(C)cc(N[C@@H](Cc2ccccc2)C(=O)NCCOc2ccccc2)n1` it was 1210 nM. Consider `O=C(Nc1ccc(-c2nc3ccccc3[nH]2)cc1)c1ccc(Cl)s1`, for which the XC50 is 595 nM.

In turn, `O=C(NCCCN1CCC(Cc2ccccc2)CC1)c1cc2c(Cl)nc3ccccc3c2s1` came in with an XC50 of 744 nM.

`CC[C@H]1CN2CC[C@H]1C[C@H]2[C@H](O)c1cc(N2CCCC2)nc2ccc(OC)cc12`: the XC50 is 44.8 nM. For `O=C1CCCN1CCCNCc1ccc(-c2ccc(-c3nc4cc(C(F)(F)F)ccc4[nH]3)s2)cc1` the value was 380 nM. For `CC1(C)NC(N)=NC(=N)N1OCCCc1c(Cl)cccc1Cl`, the XC50 came to 3.2 nM. Regarding `Cc1cccc(CNc2nc(C)cc(N[C@@H](Cc3ccccc3)C(=O)NCc3cccc(F)c3)n2)c1`, the XC50 was 1040 nM. For `c1ccc(Oc2ccc(Nc3ccnc4ccc(-c5ccccn5)cc34)cc2)cc1` the value was 1100 nM; for `O=C(Nc1cncc(NC(=O)c2ccc(Cl)c(Cl)c2)c1)c1ccc(Cl)c(Cl)c1`, 730 nM.

In turn, `Cc1ccccc1NC(=O)NC1CCN(CCCCCNC(=O)/C=C/c2ccc(Cl)c(Cl)c2)CC1` displayed an XC50 of 769 nM. Take `COc1cc2nc(NCc3nc4ccccc4[nH]3)nc(N)c2cc1OC`: the XC50 was determined as 885 nM. For `O=C(NCc1ccc(F)cc1)c1cnc(N2CCN(c3ccncc3)CC2)c(Cl)c1` the value was 1390 nM; for `COc1cc(Cc2cnc(N)nc2N)cc(OCCCCCCN2C(=O)c3ccccc3C2=O)c1OC`, 1100 nM. For `O=C(Nc1nc2cc(S(=O)(=O)NCCCN3CCOCC3)ccc2n1CCCn1ccnc1)c1ccc(Cl)cc1`, the XC50 was 925 nM. On to `O=C(Nc1ccc(Cn2nc(Cl)c(N3CCNCC3)cc2=O)cc1)Nc1ccc(-c2ccccc2)cc1`, for which the XC50 is 753 nM. The molecule `CC(C)COc1ccc(Cl)cc1Cc1ccc(-c2nc3cc(F)c(F)cc3[nH]2)o1` had an XC50 of 894 nM. The molecule `COc1cc(NCC(C)CNCc2cn(Cc3ccccc3)c3ccccc23)nc2ccccc12` (stereo not given) showed an XC50 of 633 nM. For `COc1cccc(Nc2nc(Nc3cccc(C#N)c3)cc(C(F)(F)F)n2)c1`, the XC50 amounted to 834 nM. In the case of `Clc1cc(Cl)c2c(c1)C(NCCCNc1nc3ccccc3[nH]1)CCO2` (stereo not given) it was 325 nM. As for `O=C(NCCc1ccccc1)N(Cc1ccccc1-c1cccc(CNC2CCCC2)c1)C1CCN(Cc2ccccc2)CC1`, the XC50 is 832 nM. Molecule `COc1ccc2ncc(F)c(CCN3CC(O)C(CNCc4ccccc4)C3)c2n1` (stereo not given) showed an XC50 of 910 nM. As to `CS(=O)(=O)c1ccc(CCNCc2ccc(-c3ccc(CN(C(=O)c4ccc(Cl)nc4)C4CCN(Cc5ccccc5)CC4)cc3)nc2)cc1`, the XC50 amounted to 801 nM. In turn, `COc1cc(C(=O)Nc2cccc(-c3nc4ccccc4[nH]3)c2)cc(OC)c1OC` displayed an XC50 of 723 nM. For `COc1ccc2nccc([C@@H](O)CN3CCC(NC(=O)c4cc5cccnc5[nH]4)CC3)c2c1`, the XC50 stood at 894 nM. On to `COc1ccc2nccc([C@@H](O)CN3CCC(NC(=O)c4ccc(Cl)c(Cl)c4)CC3)c2c1`, for which the XC50 was 614 nM. For the molecule `CC(C)(C)c1ccc(NC(=O)c2cccc(CN3CCCN(Cc4cccc(Cl)c4)CC3)c2)cc1`, the XC50 came to 997 nM. For `CN(Cc1cccc(O)c1)C1CCN(c2cc(NC(=O)c3ccc(F)cc3)ccn2)C1` (stereo not given), the XC50 was determined as 1150 nM.

The molecule `O=C(C=Cc1ccc(Cl)c(Cl)c1)NCCCCCN1CCC(CCCNC(=O)/C=C/c2ccccc2)CC1` displayed an XC50 of 592 nM. Regarding `Cc1cc(C(=O)OCC(N)=O)c(C)n1-c1ccc(F)cc1`, the XC50 was 331 nM. For `CC1(C)N=C(N)N=C(N)C1c1ccc(Cl)c(Cl)c1` (stereo not given) the value was 25.9 nM; for `O=C(Nc1ccc(Cl)c(Cl)c1)Nc1cc(C(F)(F)F)ccc1Cl`, 1440 nM. `CS(=O)(=O)N(c1ccccc1)c1cc(C(=O)N[C@@H](Cc2ccccc2)[C@H](O)CNC2CC2)cc(N2CCCC2=O)c1` registered an XC50 of 305 nM. Take `O=C(NCCN1CCCCC1)c1ccc(CNC(=O)c2ccc(O)c(-c3ccc(Cl)c(Cl)c3)c2)cc1`: the XC50 worked out at 900 nM. Turning to `Oc1cccc(CNCCCN(Cc2ccccc2)c2ccccc2)c1`, the XC50 came to 600 nM. Consider `O=C(Nc1ccc(OC2CCN(Cc3ccccc3)CC2)c(Cl)c1)c1cccs1`, for which the XC50 is 312 nM. In turn, `Cc1sc2ccc(Cl)cc2c1S(=O)(=O)Nc1ccc2nccc(N3CC(C)NC(C)C3)c2c1` (stereo not given) registered an XC50 of 114 nM. For `Cc1ccccc1Nc1cc(Nc2ccccc2C)c2ccccc2n1` the value was 782 nM; for `Cc1cccc2nc(-c3ccc(-c4cccc(NC(=O)CCc5c[nH]cn5)c4)cc3)[nH]c12`, 410 nM; for `CC(C)CC(=O)Nc1cc(=O)[nH]c2nc(-c3ccccc3)nn12`, 351 nM. For the molecule `CCn1ccc2c(N3CCCC3=O)cc(C(=O)N[C@@H](Cc3ccccc3)[C@H](O)CNC(C)(C)CCCC(C)C)cc21`, the XC50 turned out to be 347 nM. In turn, `C[C@H](Cc1ccc(OCCCCCCOc2ccc(C[C@@H](C)N[C@H](C)c3ccccc3)cc2)cc1)NC[C@H](O)c1cccc(Cl)c1` gave an XC50 of 241 nM.

`COc1ccc(NC(=S)NC(NC(=O)CF)C(Cl)(Cl)Cl)cc1[N+](=O)[O-]` (stereo not given): the XC50 amounted to 479 nM.

`COc1ccc2nc3cc(Cl)ccc3c(Nc3ccc(O)c(CNC(C)C)c3)c2c1` had an XC50 of 140 nM. For `Cc1cc(O)nc(NC#N)n1` the value was 166 nM; for `CC(=O)Nc1[nH]c(-c2ccccc2)nc1C(N)=O`, 249 nM; for `COc1ccc(-c2ccc(NC(=O)c3cccc(Cl)c3)cc2)cc1CN1CCCC1`, 705 nM.

The molecule `COc1ccc2nccc([C@@H](O)CN3CCC(NCc4ccc5c(n4)NCCC5)CC3)c2c1` came in with an XC50 of 738 nM. `CN1CCN(Cc2ccc(-c3ccc4c(Nc5cc(O)c(F)cc5Cl)ccnc4c3)o2)CC1` registered an XC50 of 132 nM.

Turning to `CN(C)C=Nc1ccc(OCCCCCCOc2ccc(N=CN(C)C)cc2)cc1`, the XC50 is 132 nM. For `CCCN(CCC)CCCN(CCCN(CCC)CCC)c1cc(C)nc(Nc2ccc(Cl)cc2)n1` the value was 168 nM. In turn, `COc1ccc(CN(C)Cc2ccc(NC(=O)c3cccc4c(=O)c5cccc(C)c5[nH]c34)cc2)cc1OC` gave an XC50 of 844 nM.

`COc1cc(F)c2ncc(F)c(CCN3C[C@H](CNCc4ccc5c(n4)NC(=O)CS5)[C@H](O)C3)c2c1`: the XC50 was determined as 462 nM. `O=C(Nc1ccc(-c2csc(-c3nc4ccccc4[nH]3)c2)cc1)Nc1ccsc1` yielded an XC50 of 552 nM. In the case of `CC(=O)c1cccc(NC(=O)N2CCCN(CCCCCNC(=O)/C=C/c3ccc(Cl)c(Cl)c3)CC2)c1`, the XC50 came to 1010 nM. For `C=CCOC(=O)N1CCC(CNCc2cccc(-c3cccc(-c4nc5cccc(C)c5[nH]4)c3)c2)C1` (stereo not given) the value was 109 nM.

In turn, `CS(=O)(=O)Nc1cccc(-c2cnc3[nH]cc(-c4ccc(CCC(=O)O)cc4)c3c2)c1` showed an XC50 of 1060 nM. For `CCCCCOc1ccc(C(O)C(CCC(CN2CCCCCC2)C(O)c2ccc(OCCCCC)cc2)CN2CCCCCC2)cc1` (stereo not given) the value was 768 nM.
